# Test results published in US6737383B1, “Herbicidal oxadiazolidines” (priority 1999, dated 2004).
# Assays:
# cocklebur = assay: Test B pre/postemergence cocklebur; type: in vivo, Xanthium strumarium
# How it was run: (§1)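 Response is a visual 0-to-10 score relative to untreated plants, where 0 means no effect and 10 means complete control, taken twelve to sixteen days after application. Treatments went onto soil at planting and onto foliage of 1- to 4-leaf plants, using a surfactant-containing non-phytotoxic solvent.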
# smallflower flatsedge = assay: Test B flood test smallflower flatsedge; type: in vivo, Cyperus difformis
# How it was run: (§2)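 Flood test on plants grown to the 2-leaf stage; treated plants kept in greenhouse twelve to sixteen days, then visually rated against controls on a 0 (no effect) to 10 (complete control) scale.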
# giant foxtail = assay: Test B pre/postemergence giant foxtail; type: in vivo, Setaria faberii
# How it was run: as §1
# rice = assay: Test B flood test rice; type: in vivo, Oryza sativa
# How it was run: as §2
# duck salad = assay: Test B flood test duck salad; type: in vivo, Heteranthera limosa
# How it was run: as §2
# morningglory = assay: Test B pre/postemergence morningglory; type: in vivo, Ipomoea hederacea
# How it was run: as §1
# surinam grass = assay: Test B pre/postemergence surinam grass; type: in vivo, Brachiaria decumbens
# How it was run: as §1
# purple nutsedge = assay: Test B pre/postemergence purple nutsedge; type: in vivo, Cyperus rotundus
# How it was run: as §1
# pigweed = assay: Test B pre/postemergence pigweed; type: in vivo, Amaranthus retroflexus
# How it was run: as §1
# sugar beet = assay: Test B pre/postemergence sugar beet; type: in vivo, Beta vulgaris
# How it was run: as §1
# soybean = assay: Test B pre/postemergence soybean; type: in vivo, Glycine max
# How it was run: as §1
# blackgrass = assay: Test B pre/postemergence blackgrass; type: in vivo, Alopecurus myosuroides
# How it was run: as §1
# crabgrass = assay: Test B pre/postemergence crabgrass; type: in vivo, Digitaria sanguinalis
# How it was run: as §1
# corn = assay: Test B pre/postemergence corn; type: in vivo, Zea mays
# How it was run: as §1
# bedstraw = assay: Test B pre/postemergence bedstraw; type: in vivo, Galium aparine
# How it was run: as §1
# wild oat = assay: Test B pre/postemergence wild oat; type: in vivo, Avena fatua
# How it was run: as §1
# [1] = Preemergence, Rate 62 g/ha, scale of 0 to 10 where 0 is no effect and 10 is complete control
# [2] = Preemergence, Rate 250 g/ha, scale of 0 to 10 where 0 is no effect and 10 is complete control
# [3] = Preemergence, Rate 500 g/ha, scale of 0 to 10 where 0 is no effect and 10 is complete control
# [4] = Rate 62 g/ha, Postemergence, scale 0 to 10 (0 no effect, 10 complete control)
# [5] = Rate 125 g/ha, Postemergence, scale of 0 to 10 where 0 is no effect and 10 is complete control
# [6] = Rate 125 g/ha, Preemergence, scale of 0 to 10 where 0 is no effect and 10 is complete control
# [7] = Rate 250 g/ha, Postemergence, scale of 0 to 10 where 0 is no effect and 10 is complete control
# [8] = Rate 500 g/ha, Postemergence, scale 0 to 10, 0 no effect, 10 complete control
# [9] = Rate 62 g/ha, headed Pre-emergence (flood test species), scale 0 to 10 (0 no effect, 10 complete control)
# [10] = Rate 125 g/ha, Pre-emergence, flood test species, scale 0 to 10 where 0 is no effect and 10 is complete control
# [11] = Rate 250 g/ha, Pre-emergence, flood-test species, scale 0 to 10, 0 is no effect, 10 is complete control
# [12] = Rate 500 g/ha, Pre-emergence, flood test species, scale 0 to 10 (0 no effect, 10 complete control)
smiles,measurement,setting,value
COCn1c(=O)on(C(=O)N(c2ccc(F)cc2)C(C)C)c1=O [Compound 293],Cocklebur plant response rating,cocklebur; [1],0
same,Cocklebur plant response rating,cocklebur; [2],0
same,"Plant response rating, Cocklebur",cocklebur; [3],0
same,Cocklebur plant response rating,cocklebur; [4],0
same,Cocklebur plant response rating,cocklebur; [5],0
same,Cocklebur plant response rating,cocklebur; [6],0
same,"Plant response rating, Cocklebur",cocklebur; [7],0
same,Cocklebur plant response rating,cocklebur; [8],0
same,S. Flatsedge plant response rating,smallflower flatsedge; [9],0
same,S. Flatsedge plant response rating,smallflower flatsedge; [10],0
same,S. Flatsedge plant response rating,smallflower flatsedge; [11],0
same,S. Flatsedge plant response rating,smallflower flatsedge; [12],0
same,Giant foxtail plant response rating,giant foxtail; [1],9
same,Giant foxtail plant response rating,giant foxtail; [2],9
same,"Plant response rating, Giant foxtail",giant foxtail; [3],10
same,Giant foxtail plant response rating,giant foxtail; [4],5
same,Giant foxtail plant response rating,giant foxtail; [5],8
same,Giant foxtail plant response rating,giant foxtail; [6],9
same,"Plant response rating, Giant foxtail",giant foxtail; [7],8
same,Rice plant response rating,rice; [9],0
same,Rice plant response rating,rice; [10],0
same,Rice plant response rating,rice; [11],3
same,Rice plant response rating,rice; [12],5
same,Ducksalad plant response rating,duck salad; [9],0
same,Ducksalad plant response rating,duck salad; [10],0
same,Ducksalad plant response rating,duck salad; [11],0
same,Ducksalad plant response rating,duck salad; [12],0
same,Morningglory plant response rating,morningglory; [1],0
same,Morningglory plant response rating,morningglory; [2],0
same,"Plant response rating, Morningglory",morningglory; [3],4
same,Morningglory plant response rating,morningglory; [4],1
same,Morningglory plant response rating,morningglory; [5],5
same,Morningglory plant response rating,morningglory; [6],0
same,"Plant response rating, Morningglory",morningglory; [7],5
same,B. signalgrass plant response rating,surinam grass; [1],2
same,B. signalgrass plant response rating,surinam grass; [2],7
same,"Plant response rating, B. signalgrass",surinam grass; [3],9
same,B. signalgrass plant response rating,surinam grass; [4],0
same,B. signalgrass plant response rating,surinam grass; [5],0
same,B. signalgrass plant response rating,surinam grass; [6],3
same,"Plant response rating, B. signalgrass",surinam grass; [7],7
same,B. signalgrass plant response rating,surinam grass; [8],7
same,Nutsedge plant response rating,purple nutsedge; [1],0
same,Nutsedge plant response rating,purple nutsedge; [2],7
same,Nutsedge plant response rating,purple nutsedge; [4],0
same,Nutsedge plant response rating,purple nutsedge; [5],3
same,Nutsedge plant response rating,purple nutsedge; [6],0
same,"Plant response rating, Nutsedge",purple nutsedge; [7],8
same,Redroot pigweed plant response rating,pigweed; [1],6
same,Redroot pigweed plant response rating,pigweed; [2],10
same,"Plant response rating, Redroot pigweed",pigweed; [3],10
same,Redroot pigweed plant response rating,pigweed; [4],0
same,Redroot pigweed plant response rating,pigweed; [5],2
same,Redroot pigweed plant response rating,pigweed; [6],8
same,"Plant response rating, Redroot pigweed",pigweed; [7],2
same,Sugarbeets plant response rating,sugar beet; [1],0
same,Sugarbeets plant response rating,sugar beet; [2],4
same,"Plant response rating, Sugarbeets",sugar beet; [3],8
same,Sugarbeets plant response rating,sugar beet; [4],0
same,Sugarbeets plant response rating,sugar beet; [5],0
same,Sugarbeets plant response rating,sugar beet; [6],4
same,"Plant response rating, Sugarbeets",sugar beet; [7],3
same,Soybean plant response rating,soybean; [1],0
same,Soybean plant response rating,soybean; [2],2
same,"Plant response rating, Soybean",soybean; [3],2
same,Soybean plant response rating,soybean; [4],1
same,Soybean plant response rating,soybean; [5],2
same,Soybean plant response rating,soybean; [6],0
same,"Plant response rating, Soybean",soybean; [7],2
same,Blackgrass plant response rating,blackgrass; [1],7
same,Blackgrass plant response rating,blackgrass; [2],9
same,"Plant response rating, Blackgrass",blackgrass; [3],9
same,Blackgrass plant response rating,blackgrass; [4],5
same,Blackgrass plant response rating,blackgrass; [5],9
same,Blackgrass plant response rating,blackgrass; [6],7
same,"Plant response rating, Blackgrass",blackgrass; [7],9
same,Blackgrass plant response rating,blackgrass; [8],9
same,Crabgrass plant response rating,crabgrass; [1],1
same,Crabgrass plant response rating,crabgrass; [2],8
same,"Plant response rating, Crabgrass",crabgrass; [3],8
same,Crabgrass plant response rating,crabgrass; [4],6
same,Crabgrass plant response rating,crabgrass; [5],8
same,Crabgrass plant response rating,crabgrass; [6],3
same,"Plant response rating, Crabgrass",crabgrass; [7],9
same,Corn plant response rating,corn; [1],0
same,Corn plant response rating,corn; [2],9
same,Corn plant response rating,corn; [4],0
same,Corn plant response rating,corn; [5],0
same,Corn plant response rating,corn; [6],0
same,"Plant response rating, Corn",corn; [7],0
same,Corn plant response rating,corn; [8],3
same,Bedstraw plant response rating,bedstraw; [1],0
same,Bedstraw plant response rating,bedstraw; [2],0
same,"Plant response rating, Bedstraw",bedstraw; [3],0
same,Bedstraw plant response rating,bedstraw; [4],0
same,Bedstraw plant response rating,bedstraw; [5],2
same,Bedstraw plant response rating,bedstraw; [6],0
same,"Plant response rating, Bedstraw",bedstraw; [7],3
same,Bedstraw plant response rating,bedstraw; [8],9
same,Wild oats plant response rating,wild oat; [1],1
same,Wild oats plant response rating,wild oat; [2],8
same,"Plant response rating, Wild oats",wild oat; [3],9
same,Wild oats plant response rating,wild oat; [4],0
same,Wild oats plant response rating,wild oat; [5],0
same,"Plant response rating, Wild oats",wild oat; [7],3
CC(C)N(C(=O)n1oc(=O)n(C[Si](C)(C)C)c1=O)c1ccc(F)cc1 [Compound 294],Cocklebur plant response rating,cocklebur; [1],0
same,Cocklebur plant response rating,cocklebur; [2],0
same,Cocklebur plant response rating,cocklebur; [4],0
same,Cocklebur plant response rating,cocklebur; [5],0
same,Cocklebur plant response rating,cocklebur; [6],0
same,"Plant response rating, Cocklebur",cocklebur; [7],0
same,Cocklebur plant response rating,cocklebur; [8],0
same,S. Flatsedge plant response rating,smallflower flatsedge; [9],0
same,S. Flatsedge plant response rating,smallflower flatsedge; [10],0
same,S. Flatsedge plant response rating,smallflower flatsedge; [11],0
same,S. Flatsedge plant response rating,smallflower flatsedge; [12],4
same,Giant foxtail plant response rating,giant foxtail; [1],7
same,Giant foxtail plant response rating,giant foxtail; [2],10
same,"Plant response rating, Giant foxtail",giant foxtail; [3],10
same,Giant foxtail plant response rating,giant foxtail; [4],0
same,Giant foxtail plant response rating,giant foxtail; [5],0
same,Giant foxtail plant response rating,giant foxtail; [6],9
same,"Plant response rating, Giant foxtail",giant foxtail; [7],2
same,Rice plant response rating,rice; [9],0
same,Rice plant response rating,rice; [10],0
same,Rice plant response rating,rice; [11],0
same,Rice plant response rating,rice; [12],0
same,Ducksalad plant response rating,duck salad; [9],0
same,Ducksalad plant response rating,duck salad; [10],0
same,Ducksalad plant response rating,duck salad; [11],0
same,Ducksalad plant response rating,duck salad; [12],0
same,Morningglory plant response rating,morningglory; [1],0
same,Morningglory plant response rating,morningglory; [2],0
same,"Plant response rating, Morningglory",morningglory; [3],0
same,Morningglory plant response rating,morningglory; [4],6
same,Morningglory plant response rating,morningglory; [5],6
same,Morningglory plant response rating,morningglory; [6],0
same,"Plant response rating, Morningglory",morningglory; [7],9
same,B. signalgrass plant response rating,surinam grass; [1],0
same,B. signalgrass plant response rating,surinam grass; [2],7
same,"Plant response rating, B. signalgrass",surinam grass; [3],9
same,B. signalgrass plant response rating,surinam grass; [4],0
same,B. signalgrass plant response rating,surinam grass; [5],0
same,B. signalgrass plant response rating,surinam grass; [6],7
same,"Plant response rating, B. signalgrass",surinam grass; [7],0
same,B. signalgrass plant response rating,surinam grass; [8],0
same,Nutsedge plant response rating,purple nutsedge; [1],0
same,Nutsedge plant response rating,purple nutsedge; [2],0
same,"Plant response rating, Nutsedge",purple nutsedge; [3],0
same,Nutsedge plant response rating,purple nutsedge; [4],0
same,Nutsedge plant response rating,purple nutsedge; [5],0
same,Nutsedge plant response rating,purple nutsedge; [6],0
same,"Plant response rating, Nutsedge",purple nutsedge; [7],0
same,Redroot pigweed plant response rating,pigweed; [1],0
same,Redroot pigweed plant response rating,pigweed; [2],0
same,"Plant response rating, Redroot pigweed",pigweed; [3],2
same,Redroot pigweed plant response rating,pigweed; [4],0
same,Redroot pigweed plant response rating,pigweed; [5],0
same,Redroot pigweed plant response rating,pigweed; [6],0
same,"Plant response rating, Redroot pigweed",pigweed; [7],0
same,Sugarbeets plant response rating,sugar beet; [1],0
same,Sugarbeets plant response rating,sugar beet; [2],0
same,"Plant response rating, Sugarbeets",sugar beet; [3],2
same,Sugarbeets plant response rating,sugar beet; [4],0
same,Sugarbeets plant response rating,sugar beet; [5],0
same,Sugarbeets plant response rating,sugar beet; [6],0
same,"Plant response rating, Sugarbeets",sugar beet; [7],0
same,Soybean plant response rating,soybean; [1],0
same,Soybean plant response rating,soybean; [2],0
same,"Plant response rating, Soybean",soybean; [3],0
same,Soybean plant response rating,soybean; [4],2
same,Soybean plant response rating,soybean; [5],3
same,Soybean plant response rating,soybean; [6],0
same,"Plant response rating, Soybean",soybean; [7],4
same,Blackgrass plant response rating,blackgrass; [1],0
same,Blackgrass plant response rating,blackgrass; [2],6
same,"Plant response rating, Blackgrass",blackgrass; [3],10
same,Blackgrass plant response rating,blackgrass; [4],0
same,Blackgrass plant response rating,blackgrass; [5],0
same,Blackgrass plant response rating,blackgrass; [6],3
same,"Plant response rating, Blackgrass",blackgrass; [7],7
same,Blackgrass plant response rating,blackgrass; [8],8
same,Crabgrass plant response rating,crabgrass; [1],1
same,Crabgrass plant response rating,crabgrass; [2],9
same,"Plant response rating, Crabgrass",crabgrass; [3],10
same,Crabgrass plant response rating,crabgrass; [4],0
same,Crabgrass plant response rating,crabgrass; [5],0
same,Crabgrass plant response rating,crabgrass; [6],9
same,"Plant response rating, Crabgrass",crabgrass; [7],2
same,Corn plant response rating,corn; [1],0
same,Corn plant response rating,corn; [2],0
same,"Plant response rating, Corn",corn; [3],2
same,Corn plant response rating,corn; [4],0
same,Corn plant response rating,corn; [5],0
same,Corn plant response rating,corn; [6],0
same,"Plant response rating, Corn",corn; [7],0
same,Corn plant response rating,corn; [8],0
same,Bedstraw plant response rating,bedstraw; [1],0
same,Bedstraw plant response rating,bedstraw; [2],0
same,"Plant response rating, Bedstraw",bedstraw; [3],0
same,Bedstraw plant response rating,bedstraw; [4],3
same,Bedstraw plant response rating,bedstraw; [5],6
same,Bedstraw plant response rating,bedstraw; [6],0
same,"Plant response rating, Bedstraw",bedstraw; [7],8
same,Bedstraw plant response rating,bedstraw; [8],9
same,Wild oats plant response rating,wild oat; [1],0
same,Wild oats plant response rating,wild oat; [2],3
same,"Plant response rating, Wild oats",wild oat; [3],8
same,Wild oats plant response rating,wild oat; [4],0
same,Wild oats plant response rating,wild oat; [5],0
same,"Plant response rating, Wild oats",wild oat; [7],0
